According to patent publication US20230286970A1, “NOVEL OXADIAZOLE-BASED SELECTIVE HDAC6 INHIBITORS” (ITALFARMACO S.P.A., priority 2020, published 2023):
pIC50: −log10 of the molar value.

Experiments:
[1] = Stability in human plasma; conditions: after 4 hours, 37° C.
Protocol: (§1) In order to evaluate the stability to circulating enzymes, test compounds were incubated in human and rat plasma at 37° C. in a thermostated oscillating bath. Each test compound was incubated at μM concentration (50 μM when the samples were analysed by UV/HPLC, 1 or 2 μM when the samples were analysed by LC-MS/MS) for 0, 15, 30 minutes and 1, 2 and 4 hours. The reaction was stopped placing samples on ice bath and adding acidified acetonitrile. After centrifugation (10 minutes at 14000 rpm) an aliquot of the supernatant was diluted with water, filtered with 0.45 μm regenerated cellulose syringe filters and injected in HPLC-UV or in LC-MS/MS. The percentage of the remaining amount at the various incubation times with respect to the initial amount were calculated. The half-life in plasma was also calculated.

[2] = Stability in rat plasma; conditions: after 4 hours, 37° C.
Protocol: as §1

[3] = Stability to Phase I metabolism in rat S9 liver fraction; conditions: after 90 minutes, 37° C.
Protocol: Test compounds were incubated in rat and human liver S9 fraction at 37° C. up to 90 minutes in order to evaluate their stability to Phase I metabolism by hepatic enzymes. Each test compound was incubated at μM concentration (50 μM when the samples were analysed by UV/HPLC, 1 or 2 μM when the samples were analysed by LC-MS/MS) with S9 fraction (protein content 2 mg/m L) in 100 mM phosphate buffer (pH 7.4), 3.3 mM MgCl2 and 1.3 mM NADPH for 0, 10, 30, 60 and 90 minutes at 37° C. in a thermostated oscillating bath. The reaction was stopped placing samples on ice bath and adding acidified acetonitrile. After centrifugation (10 minutes at 14000 rpm) an aliquot of the supernatant was diluted with water, filtered with 0.45 μm regenerated cellulose syringe filters and injected in HPLC-UV or in LC-MS/MS. The percentage of the remaining amount at the various incubation times with respect to the initial amount were calculated.

[4] = molecular target: recombinant human HDAC1 (Homo sapiens (Human), UniProt Q13547); test: Enzymatic screening, HDAC1 inhibition (fluorogenic FdL_G substrate); format: biochemical
Chain of recombinant human HDAC1 (Q13547 whole entry): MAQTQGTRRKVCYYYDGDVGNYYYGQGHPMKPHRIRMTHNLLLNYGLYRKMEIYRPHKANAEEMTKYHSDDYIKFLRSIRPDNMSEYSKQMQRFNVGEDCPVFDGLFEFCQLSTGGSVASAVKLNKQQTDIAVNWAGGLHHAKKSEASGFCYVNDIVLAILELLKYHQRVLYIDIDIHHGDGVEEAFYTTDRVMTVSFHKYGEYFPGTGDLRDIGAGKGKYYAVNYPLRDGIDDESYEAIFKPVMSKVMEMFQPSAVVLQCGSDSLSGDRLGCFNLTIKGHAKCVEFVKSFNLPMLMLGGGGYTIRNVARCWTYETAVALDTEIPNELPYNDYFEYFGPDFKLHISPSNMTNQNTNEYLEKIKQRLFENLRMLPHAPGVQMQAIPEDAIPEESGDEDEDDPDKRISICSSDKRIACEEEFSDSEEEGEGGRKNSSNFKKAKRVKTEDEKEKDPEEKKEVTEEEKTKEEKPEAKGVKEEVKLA
Procedure, shortened: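 Recombinant human HDAC1 inhibition was measured fluorometrically using the FLUOR DE LYS-Green (FdL_G) substrate. Compounds at 8 doses (1% DMSO final) in Tris-HCl pH 8 buffer with NaCl, Tween-20 and glycerol were preincubated in triplicate with enzyme and 1 mg/mL BSA, then given substrate. Developer I plus 2 μM TSA was added, and fluorescence read after 25 minutes in the dark.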

[5] = molecular target: recombinant human HDAC6 (Homo sapiens (Human), UniProt Q9UBN7); test: Enzymatic screening, HDAC6 inhibition (fluorogenic FdL_G substrate); format: biochemical
Chain of recombinant human HDAC6 (Q9UBN7 whole entry): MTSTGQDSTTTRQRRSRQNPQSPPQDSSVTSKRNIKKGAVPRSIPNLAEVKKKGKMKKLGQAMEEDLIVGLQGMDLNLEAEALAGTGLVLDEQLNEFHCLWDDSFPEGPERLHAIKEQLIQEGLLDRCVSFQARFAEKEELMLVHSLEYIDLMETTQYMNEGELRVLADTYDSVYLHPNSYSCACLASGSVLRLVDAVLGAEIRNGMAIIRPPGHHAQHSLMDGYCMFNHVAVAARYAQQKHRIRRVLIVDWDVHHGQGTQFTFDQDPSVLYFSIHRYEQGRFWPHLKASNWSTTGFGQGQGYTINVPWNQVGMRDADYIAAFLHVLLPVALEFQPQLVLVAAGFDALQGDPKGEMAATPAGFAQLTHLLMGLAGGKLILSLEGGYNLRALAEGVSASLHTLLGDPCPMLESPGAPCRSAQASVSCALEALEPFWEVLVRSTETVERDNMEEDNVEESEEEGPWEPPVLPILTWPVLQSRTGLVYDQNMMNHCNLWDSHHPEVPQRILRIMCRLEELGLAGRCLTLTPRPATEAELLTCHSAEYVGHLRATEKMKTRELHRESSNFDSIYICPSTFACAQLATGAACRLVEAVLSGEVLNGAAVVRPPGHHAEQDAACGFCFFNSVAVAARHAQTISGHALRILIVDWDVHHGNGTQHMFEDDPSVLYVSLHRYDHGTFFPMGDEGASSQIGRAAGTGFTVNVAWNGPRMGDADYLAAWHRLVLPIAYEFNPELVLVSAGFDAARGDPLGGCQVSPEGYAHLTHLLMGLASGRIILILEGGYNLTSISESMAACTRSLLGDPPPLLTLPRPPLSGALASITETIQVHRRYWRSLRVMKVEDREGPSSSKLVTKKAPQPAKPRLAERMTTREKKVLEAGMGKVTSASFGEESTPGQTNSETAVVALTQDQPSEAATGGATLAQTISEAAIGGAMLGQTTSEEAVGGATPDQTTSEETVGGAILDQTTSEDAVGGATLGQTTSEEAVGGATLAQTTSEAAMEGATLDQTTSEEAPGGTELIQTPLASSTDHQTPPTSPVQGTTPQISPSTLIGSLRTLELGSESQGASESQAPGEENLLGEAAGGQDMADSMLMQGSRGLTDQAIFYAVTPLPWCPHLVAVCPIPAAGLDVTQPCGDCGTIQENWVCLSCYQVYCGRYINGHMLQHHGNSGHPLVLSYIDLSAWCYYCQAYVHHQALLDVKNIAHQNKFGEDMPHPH
Procedure, shortened: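 Enzyme was preincubated with compound (8 doses, triplicate, 1% DMSO) in 25 mM Tris-HCl pH 8, 130 mM NaCl, 0.05% Tween-20, 10% glycerol, with BSA. A FLUOR DE LYS-Green substrate was then added, and fluorescence was read after developer plus 2 μM TSA.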

[6] = Stability to Phase I metabolism in human S9 liver fraction; conditions: after 90 minutes, 37° C.

SMILES	residual percentage in HUMAN PLASMA [1] [%]	residual percentage in RAT PLASMA [2] [%]	residual percentage in RAT S9 FRACTION [3] [%]	pIC50 [4]	pIC50 [5]	residual percentage in HUMAN S9 FRACTION [6] [%]
NC(=O)c1cccc(-c2nnn(Cc3ccc(-c4nnc(C(F)F)o4)cc3)n2)c1 [compound 75, 3-(2-(4-(5-(difluoromethyl)-1,3,4-oxadiazol-2-yl)benzyl)-2H-tetrazol-5-yl)benzamide]	96	76	90	< 3.70	7.49	85
NC(=O)c1cc(-c2nnn(Cc3ccc(-c4nnc(C(F)F)o4)cc3)n2)cnc1N [compound 76, 2-amino-5-(2-(4-(5-(difluoromethyl)-1,3,4-oxadiazol-2-yl)benzyl)-2H-tetrazol-5-yl)nicotinamide]	74	73	89	< 3.70	7.49	53
Nc1ncc(-c2nnn(Cc3ccc(-c4nnc(C(F)F)o4)cc3)n2)cn1 [compound 79, 5-(2-(4-(5-(difluoromethyl)-1,3,4-oxadiazol-2-yl)benzyl)-2H-tetrazol-5-yl)pyrimidin-2-amine]	85	77	78	< 3.70	7.48	96
CN1CCC(NC(=O)c2cccc(-c3nnn(Cc4ccc(-c5nnc(C(F)F)o5)cc4)n3)c2)CC1 [compound 80, 3-(2-(4-(5-(difluoromethyl)-1,3,4-oxadiazol-2-yl)benzyl)-2H-tetrazol-5-yl)-N-(1-methylpiperidin-4-yl)benzamide]	97	88	46	< 3.70	7.48	94
CN(C)C(=O)c1cccc(-c2nnn(Cc3ccc(-c4nnc(C(F)F)o4)cc3)n2)c1 [compound 81, 3-(2-(4-(5-(difluoromethyl)-1,3,4-oxadiazol-2-yl)benzyl)-2H-tetrazol-5-yl)-N,N-dimethylbenzamide]	87	87	14	< 3.70	7.48	78
Nc1ncnc2cc(-c3cn(Cc4ccc(-c5nnc(C(F)F)o5)cc4)nn3)ccc12 [compound 84, 7-(1-(4-(5-(difluoromethyl)-1,3,4-oxadiazol-2-yl)benzyl)-1H-1,2,3-triazol-4-yl)quinazolin-4-amine]	80	60	62	< 3.70	7.48	85
Nc1cncc(-c2nnn(Cc3ccc(-c4nnc(C(F)F)o4)cc3)n2)c1 [compound 90, 5-(2-(4-(5-(difluoromethyl)-1,3,4-oxadiazol-2-yl)benzyl)-2H-tetrazol-5-yl)pyridin-3-amine]	80	88	13	< 3.70	7.47	83
CCNC(=O)c1cccc(-c2nnn(Cc3ccc(-c4nnc(C(F)F)o4)cc3)n2)c1 [compound 91, 3-(2-(4-(5-(difluoromethyl)-1,3,4-oxadiazol-2-yl)benzyl)-2H-tetrazol-5-yl)-N-ethylbenzamide]	78	93	68	< 3.70	7.46	74
O=C(c1cccc(-c2nnn(Cc3ccc(-c4nnc(C(F)F)o4)cc3F)n2)c1)N1CCOCC1 [compound 93, (3-(2-(4-(5-(difluoromethyl)-1,3,4-oxadiazol-2-yl)-2-fluorobenzyl)-2H-tetrazol-5-yl)phenyl)(morpholino)methanone]	74	79	59	< 3.70	7.44	72
O=C1NCc2ccc(-c3nnn(Cc4ccc(-c5nnc(C(F)F)o5)c(F)c4)n3)cc21 [compound 97, 6-(2-(4-(5-(difluoromethyl)-1,3,4-oxadiazol-2-yl)-3-fluorobenzyl)-2H-tetrazol-5-yl)isoindolin-1-one]	76	96	95	< 3.70	7.42	84
CCNc1ccc(-c2nnn(Cc3ccc(-c4nnc(C(F)F)o4)cc3)n2)cn1 [compound 99, 5-(2-(4-(5-(difluoromethyl)-1,3,4-oxadiazol-2-yl)benzyl)-2H-tetrazol-5-yl)-N-ethylpyridin-2-amine]	86	93	18	< 3.70	7.42	52
Cc1ncccc1-c1cn(Cc2c(F)cc(-c3nnc(C(F)F)o3)cc2F)nn1 [compound 105, 2-(3,5-difluoro-4-((4-(2-methylpyridin-3-yl)-1H-1,2,3-triazol-1-yl)methyl)phenyl)-5-(difluoromethyl)-1,3,4-oxadiazole]	84	81	71	< 3.70	7.39	99
FC(F)c1nnc(-c2ccc(Cn3nnc(-c4cccc(-c5nc6c([nH]5)CCNC6)c4)n3)cc2)o1 [compound 108, 2-(difluoromethyl)-5-(4-((5-(3-(4,5,6,7-tetrahydro-1H-imidazo[4,5-c]pyridin-2-yl)phenyl)-2H-tetrazol-2-yl)methyl)phenyl)-1,3,4-oxadiazole]	78	77	68	4.18	7.35	96
O=C1NCc2ccc(-c3cn(Cc4ccc(-c5nnc(C(F)F)o5)cc4)nn3)cc21 [compound 109, 6-(1-(4-(5-(difluoromethyl)-1,3,4-oxadiazol-2-yl)benzyl)-1H-1,2,3-triazol-4-yl)isoindolin-1-one]	89	78	87	< 3.70	7.38	82
FC(F)c1nnc(-c2ccc(Cn3nnc(-c4ccc5ccccc5n4)n3)cc2)o1 [compound 113, 2-(difluoromethyl)-5-(4-((5-(quinolin-2-yl)-2H-tetrazol-2-yl)methyl)phenyl)-1,3,4-oxadiazole]	75	92	85	< 3.70	7.37	76
Fc1cc(-c2nnc(C(F)F)o2)cc(F)c1Cn1cc(-c2cccs2)nn1 [compound 122, 2-(3,5-difluoro-4-((4-(thiophen-2-yl)-1H-1,2,3-triazol-1-yl)methyl)phenyl)-5-(difluoromethyl)-1,3,4-oxadiazole]	88	84	10	< 3.70	7.34	78
COc1ccc(-c2nnn(Cc3ccc(-c4nnc(C(F)F)o4)cc3)n2)cc1OC [compound 128, 2-(difluoromethyl)-5-(4-((5-(3,4-dimethoxyphenyl)-2H-tetrazol-2-yl)methyl)phenyl)-1,3,4-oxadiazole]	96	83	13	< 3.70	7.31	30
COc1ncccc1-c1cn(Cc2ccc(-c3nnc(C(F)F)o3)cc2)nn1 [compound 131, 2-(difluoromethyl)-5-(4-((4-(2-methoxypyridin-3-yl)-1H-1,2,3-triazol-1-yl)methyl)phenyl)-1,3,4-oxadiazole]	92	82	58	< 3.70	7.29	83
CC(=O)Nc1cc(-c2nnn(Cc3ccc(-c4nnc(C(F)F)o4)cc3)n2)cnc1C [compound 133, N-(5-(2-(4-(5-(difluoromethyl)-1,3,4-oxadiazol-2-yl)benzyl)-2H-tetrazol-5-yl)-2-methylpyridin-3-yl)acetamide]	88	69	78	< 3.70	7.29	98
CC(=O)c1cccc(-c2nnn(Cc3ccc(-c4nnc(C(F)F)o4)cc3)n2)c1 [compound 140, 1-(3-(2-(4-(5-(difluoromethyl)-1,3,4-oxadiazol-2-yl)benzyl)-2H-tetrazol-5-yl)phenyl)ethan-1-one]	99	58	0	< 3.70	7.26	87
